Data as given in PubChem BioAssay (NCI).
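These data come from cells grown in 96-well plates and exposed to compound for 48 hours at five concentrations. GI50: concentration for 50% inhibition of growth. TGI: total growth inhibition.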

Columns and labels:
Test in all cases: NCI tumour cell line growth inhibition, 48 h
HOP-62 NSCLC = test system: HOP-62 NSCLC
M14 melanoma = test system: M14 melanoma
MDA-MB-435 = test system: MDA-MB-435
OVCAR-4 ovarian = test system: OVCAR-4 ovarian
PC-3 prostate = test system: PC-3 prostate
SF-539 CNS = test system: SF-539 CNS
SK-MEL-2 melanoma = test system: SK-MEL-2 melanoma
SNB-75 CNS = test system: SNB-75 CNS
TK-10 renal = test system: TK-10 renal
RXF 393 renal = test system: RXF 393 renal

Row | SMILES | GI50 (HOP-62 NSCLC) | TGI (HOP-62 NSCLC) | GI50 (M14 melanoma) | TGI (M14 melanoma) | GI50 (MDA-MB-435) | TGI (MDA-MB-435) | GI50 (OVCAR-4 ovarian) | TGI (OVCAR-4 ovarian) | GI50 (PC-3 prostate) | TGI (PC-3 prostate) | GI50 (SF-539 CNS) | TGI (SF-539 CNS) | GI50 (SK-MEL-2 melanoma) | TGI (SK-MEL-2 melanoma) | GI50 (SNB-75 CNS) | TGI (SNB-75 CNS) | GI50 (TK-10 renal) | TGI (TK-10 renal) | GI50 (RXF 393 renal) | TGI (RXF 393 renal)
1 | O=C(c1ccco1)c1c(C(F)(F)F)n([O-])c2cc(Cl)c(Cl)cc2[n+]1=O | 0.316 µM | 1 µM | 0.715 µM | 1.46 µM | 0.877 µM | 1.81 µM | 4.17 µM | 12.7 µM | 0.23 µM | 1.01 µM | 0.768 µM | 1.53 µM | 3.07 µM | 8.89 µM | 6.16 µM | 13.6 µM | 0.943 µM | 1.73 µM |  | 
2 | O=c1[nH]c(-c2ccncc2)nc2sc3c(c12)CCCCCC3 | > 100 µM | > 100 µM | > 100 µM | > 100 µM | > 100 µM | > 100 µM |  |  | > 100 µM | > 100 µM | > 100 µM | > 100 µM | > 100 µM | > 100 µM | 2.71 µM | > 100 µM | > 100 µM | > 100 µM | > 100 µM | > 100 µM
3 | Fc1cnccc1-c1nc2ccc3[nH]ncc3c2c2c1CCCC2 | 0.909 µM | 94.2 µM | 1.58 µM | > 100 µM | 1.25 µM | > 100 µM | 3.5 µM | > 100 µM | 2.13 µM | > 100 µM | 1.29 µM | 4.54 µM |  |  | 1.41 µM | 5.54 µM | 0.605 µM | > 100 µM | 0.612 µM | 3.29 µM
4 | CC(C)CC(=O)O[C@H]1C(=O)O[C@@H]2C[C@H]3[C@H](C)C(=O)C(O[C@@H]4O[C@H](CO)[C@@H](O)[C@H](O)[C@H]4O)=C[C@]3(C)[C@H]3[C@@H](O)[C@H](O)[C@]4(C(=O)O)OC[C@]32[C@@H]14 | 44.7 µM | > 100 µM |  | > 100 µM |  | > 100 µM |  |  |  | > 100 µM | 20.5 µM | 53.3 µM |  |  |  | > 100 µM |  | > 100 µM | 10.8 µM | 38.7 µM
5 | C=C1C(=O)O[C@H]2[C@H]1CC/C(COC(=O)NCc1ccc(Cn3c(=O)sn(CCCI)c3=O)cc1)=C\CC[C@@]1(C)O[C@@H]21 | 13.5 µM | 27.4 µM | 1.74 µM | 4.69 µM | 1.68 µM | 3.3 µM | 1.46 µM | 3.11 µM | 1.94 µM | 4.4 µM | 1.71 µM | 3.34 µM | 2.42 µM | 7.19 µM |  |  | 1.71 µM | 3.35 µM | 1.52 µM | 2.95 µM
6 | O=c1[nH]c2c(ccc3cnccc32)c2c1CCC2 | 0.431 µM | > 100 µM | 0.35 µM | 1.62 µM | 0.307 µM | 1.38 µM | 0.726 µM | > 100 µM | 0.288 µM |  | 0.219 µM | 0.585 µM | 0.221 µM | 0.673 µM | 0.324 µM | 1.4 µM | 0.331 µM |  |  | 
7 | COc1ccc2c(c1)c(-c1nc(-c3cn(C)c4ncccc34)cs1)cn2CCCCN1CCCCC1 |  |  |  |  | 1.66 µM | 3.04 µM | 1.83 µM | 3.39 µM | 1.61 µM | 3 µM |  |  |  |  | 1.07 µM | 2.28 µM | 1.53 µM | 2.95 µM | 1.33 µM | 2.82 µM
8 | COc1cc2nc(NC3CCC3)nc(NC3CCN(C(C)C)CC3)c2cc1OC | 2.6 µM | 11 µM | 1.88 µM | 3.46 µM | 1.77 µM | 3.33 µM | 3.25 µM | 20.9 µM | 3.51 µM | 20.7 µM | 1.81 µM | 3.36 µM | 1.9 µM | 3.79 µM | 1.41 µM | 4.4 µM |  |  | 1.38 µM | 2.85 µM
9 | C=C(CN1CCc2ccccc2C1)c1ccc(C(=O)Nc2cccc(N)c2)cc1 | 25.6 µM | 68.4 µM | 15.4 µM | 29.1 µM | 14 µM | 31.9 µM |  |  | 21.9 µM | > 100 µM | 17.4 µM | 35.3 µM | 23.7 µM | 48.4 µM | 15.6 µM | 43 µM | 27.3 µM | 92.5 µM | 19.1 µM | 43.7 µM
10 | CCN(CC)c1ccc(C=C2C(=O)NC(=S)NC2=O)cc1 | 5.7 µM | 19.1 µM | 6.6 µM | 21 µM | 2.31 µM | 7.1 µM | 7.58 µM | 19.5 µM | 2.75 µM | 7.96 µM | 2.77 µM | 6.15 µM | 2.73 µM | 7.05 µM | 2.66 µM | 8.75 µM |  |  | 2.07 µM | 3.72 µM
11 | O=C(CNC(=O)c1cccc2ccccc12)Nc1ccccc1Oc1ccc(O)cc1 | 1.35 µM | > 25 µM | 0.698 µM | > 25 µM | 0.161 µM | 0.687 µM | 2.8 µM | > 25 µM | 1.31 µM | > 25 µM | 0.688 µM | 2.45 µM |  |  | 0.591 µM | > 25 µM | 16.9 µM | > 25 µM | 0.5 µM | 1.72 µM
12 | CCN(CC)CCCC(C)Nc1ccnc2cc(OC)ccc12 (stereo not drawn) | 21.2 µM | 50.9 µM | 16.7 µM | 30.4 µM | 19.9 µM | 40.5 µM | 22.6 µM | 62.2 µM | 5.77 µM | 21.8 µM | 19 µM | 34.4 µM | 24.8 µM | 52.9 µM |  |  | 17.7 µM | 40.6 µM | 15.7 µM | 35.5 µM
13 | CN1CC[C@H](N(C)C(=O)N2CC(c3cc(F)ccc3F)=C[C@@]2(CO)c2ccccc2)[C@H](F)C1 |  |  | 0.00202 µM | 0.00507 µM | 0.00258 µM | 0.00772 µM | 20.5 µM | > 100 µM | 0.0409 µM | > 100 µM | 0.00498 µM |  | 0.0282 µM | 79.4 µM | 0.0402 µM | 34.9 µM | 27.7 µM | > 100 µM | 0.0052 µM | 5.13 µM
